Reference: ChEMBL document CHEMBL1681642, “Synthesis and biological activity of novel MIF antagonists” (Bioorg Med Chem Lett, 2011)

What was measured:
PBMC [1] = assay: Antiinflammatory activity in human PBMC assessed as inhibition of MIF-induced IL1-beta production at 100 uM after 21 hrs by ELISA; format: functional
PBMC [2] = assay: Antiinflammatory activity in human PBMC assessed as inhibition of MIF-induced IL-6 production at 100 uM after 21 hrs by ELISA; format: functional
PBMC [3] = assay: Antiinflammatory activity in human PBMC assessed as inhibition of MIF-induced TNFalpha production at 100 uM after 21 hrs by ELISA; format: functional
[4] = target: T1, Macrophage migration inhibitory factor (Homo sapiens) (UniProt P14174); assay: Inhibition of MIF in human PBMC assessed as MIF secretion at 10 uM after 5 hrs by ELISA
T1 sequence (whole entry): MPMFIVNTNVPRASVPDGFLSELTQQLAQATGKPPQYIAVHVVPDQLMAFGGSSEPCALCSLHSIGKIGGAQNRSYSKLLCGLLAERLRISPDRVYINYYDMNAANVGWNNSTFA

[5] = Cytotoxicity against human PBMC assessed as cell viability measured during cytokines production assay at 100 uM after 21 hrs by MTS assay; format: cell-based; details: PBMC (peripheral blood mononuclear cells)
PBMC [6] = assay: Antiinflammatory activity in human PBMC assessed as inhibition of MIF-induced IL-6 production at 30 uM after 21 hrs by ELISA; format: functional
[7] = target: T1, Macrophage migration inhibitory factor (Homo sapiens); assay: Inhibition of MIF in human PBMC assessed as MIF secretion at 100 uM after 5 hrs by ELISA
[8] = target: T1, Macrophage migration inhibitory factor (Homo sapiens); assay: Inhibition of human purified MIF tautomerase activity at 100 uM after 30 mins
[9] = Cytotoxicity against human PBMC assessed as cell viability measured during MIF secretion assay at 100 uM after 21 hrs by MTS assay; format: cell-based; details: PBMC (peripheral blood mononuclear cells)
[10] = target: T1, Macrophage migration inhibitory factor (Homo sapiens); assay: Inhibition of human purified MIF tautomerase activity at 10 uM after 30 mins

SMILES | inhibition [4] [%] | inhibition [7] [%] | inhibition [8] [%] | inhibition [10] [%] | inhibition at 100 µM (PBMC [1]) [%] | inhibition at 100 µM (PBMC [2]) [%] | inhibition at 100 µM (PBMC [3]) [%] | cytotoxicity at 21 h, 100 µM [5] [%] | inhibition at 30 µM (PBMC [6]) [%] | cytotoxicity at 21 h, 100 µM [9] [%]
c1cc(C2=NOC(CN3CCOCC3)C2)co1 (stereo not given) | 44 | 78 | 56 | 20 | 32 | 49 | 0 | 6 | 39 | 0
COC(=O)CC1(C(=O)OC)CC(c2ccoc2)=NO1 (stereo not given) | 0 | 0 | 47 | 23 | 57 | 60 | 4 | 8 | 53 | 7
c1ccc(C2CC(c3ccoc3)=NO2)cc1 (stereo not given) | 37 | 68 | 59 | 17 | 31 | 14 | 50 | 16 | 5 | 0
COC(=O)CC1CC(c2ccc(O)cc2)=NO1 (stereo not given) | 35 | 87 | 59 | 8 | 34 | 12 | 35 | 10 | 11 | 8
Fc1ccc(C2CC(c3ccoc3)=NO2)cc1 (stereo not given) | 0 | 51 | 41 | 0 | 47 | 15 | 0 | 4 | 0 | 0
COC(=O)C1(C)CC(c2ccoc2)=NO1 (stereo not given) | 0 | 0 | 22 | 22 | 39 | 11 | 30 | 1 | 0 | 4
CC1(C(=O)O)CC(c2ccoc2)=NO1 (stereo not given) | 0 | 21 | 29 | 18 | 15 | 7 | 32 | 10 | 14 | 2
O=C1CCCN1C1CC(c2ccoc2)=NO1 (stereo not given) | 0 | 36 | 18 | 0 | 22 | 49 | 28 | 5 | 43 | 0
O=C1c2ccccc2C(=O)N1C1CC(c2ccoc2)=NO1 (stereo not given) | 49 | 83 | 0 | 0 | 12 | 13 | 26 | 12 | 9 | 0
COc1ccc(C2CC(c3ccoc3)=NO2)cc1 (stereo not given) | 38 | 82 | 72 | 10 | 13 | 0 | 2.5 | 12 | 0 | 0
FC(F)(F)c1ccc(C2CC(c3cn(-c4cccc(C(F)(F)F)c4)c4ccccc34)=NO2)cc1 (stereo not given) | 20 | 5 | 51 | 4 | 15 | 6 | 2 | 6 | 3 | 0
c1cc(C2=NOC(C3CCCCC3)C2)co1 (stereo not given) | 13 | 35 | 54 | 23 | 15 | 0 | 0 | 1 | 0 | 6
CC(C)(C)C(=O)OC1CC(c2ccoc2)=NO1 (stereo not given) | 40 | 86 | 30 | 13 | 6 | 1 | 0 | 8 | 3 | 0
FC(F)(F)c1ccc(C2CC(c3ccoc3)=NO2)cc1 (stereo not given) | 31 | 60 | 41 | 15 | 67 | 50 | 76 | 17 | 23 | 9

More lines, main results first:

inhibition [4] [%] | inhibition [7] [%] | inhibition [8] [%] | inhibition [10] [%] | SMILES | inhibition at 100 µM (PBMC [1]) [%] | inhibition at 100 µM (PBMC [2]) [%] | inhibition at 100 µM (PBMC [3]) [%] | cytotoxicity at 21 h, 100 µM [5] [%] | inhibition at 30 µM (PBMC [6]) [%] | cytotoxicity at 21 h, 100 µM [9] [%]
0 | 10 | 76 | 6 | COC(=O)CC1(C(=O)OC)CC(c2cn(-c3cccc(C(F)(F)F)c3)c3ccccc23)=NO1 (stereo not given) | 23 | 4 | 0 | 2 | 0 | 0
0 | 0 | 10 | 1 | O=C1CCCN1C1CC(c2cn(-c3cccc(C(F)(F)F)c3)c3ccccc23)=NO1 (stereo not given) | 68 | 52 | 68 | 16 | 25 | 15
0 | 0 | 100 | 10 | FC(F)(F)c1cccc(-n2cc(C3=NOC(CN4CCOCC4)C3)c3ccccc32)c1 (stereo not given) | 51 | 36 | 42 | 10 | 22 | 65
1 | 22 | 100 | 28 | FC(F)(F)c1cccc(-n2cc(C3=NOC(C4CCCCC4)C3)c3ccccc32)c1 (stereo not given) | 43 | 19 | 27 | 7 | 4 | 15
0 | 0 | 100 | 55 | Fc1ccc(C2CC(c3cn(-c4cccc(C(F)(F)F)c4)c4ccccc34)=NO2)cc1 (stereo not given) | 0 | 4 | 0 | 1 | 0 | 0
0 | 0 | 91 | 0 | OCCC1CC(c2cn(-c3cccc(C(F)(F)F)c3)c3ccccc23)=NO1 (stereo not given) | 88 | 84 | 88 | 9 | 60 | 0
41 | 14 | 17 | 2 | CC1(C(=O)O)CC(c2cn(-c3cccc(C(F)(F)F)c3)c3ccccc23)=NO1 (stereo not given) | 54 | 45 | 39 | 14 | 18 | 2
4 | 0 | 66 | 13 | COC(=O)C1(C)CC(c2cn(-c3cccc(C(F)(F)F)c3)c3ccccc23)=NO1 (stereo not given) | 89 | 65 | 81 | 2 | 25 | 5
11 | 2 | 71 | 6 | FC(F)(F)c1cccc(-n2cc(C3=NOC(c4ccccc4)C3)c3ccccc32)c1 (stereo not given) | 12 | 9 | 0 | 8 | 18 | 0
0 | 5 | 100 | 15 | CC(C)(C)C(=O)OC1CC(c2cn(-c3cccc(C(F)(F)F)c3)c3ccccc23)=NO1 (stereo not given) | 15 | 12 | 0 | 15 | 10 | 0
0 | 1 | 97 | 55 | COc1ccc(C2CC(c3cn(-c4cccc(C(F)(F)F)c4)c4ccccc34)=NO2)cc1 (stereo not given) | 37 | 13 | 23 | 3 | 5 | 0
